Some test systems named below: Escherichia coli BW25113; Candida albicans; Escherichia coli UB1005.
Common to all, as to experiment: ≥ marks a high value that may be exact or a test limit, other limits are often not marked, values filed in µg/mL are converted to µM
In assay [1] the test system is Escherichia coli ATCC 25726.
For assay [2], the system named is Staphylococcus aureus ATCC 25923.
Assay [3] has as its system Pseudomonas aeruginosa H103.
Assay [4] has as its system Salmonella enterica serovar Typhimurium.
For assay [5], the system named is Staphylococcus epidermidis.
In assay [6] the test system is Enterococcus faecalis ATCC 29212.
Assay [7] has as its system Escherichia coli ATCC 25922.
The test system of assay [8] is Candida albicans ATCC 90028.
Assay [9] deals with Pseudomonas aeruginosa KCTC 1637.
Assay [10] has as its system Escherichia coli KCTC 1682.
Assay [11] concerns Staphylococcus aureus KCTC 1621.
Assay [12] deals with Salmonella typhimurium KCTC 1926.
The subject of assay [13] is Bacillus subtilis KCTC 3068.
For assay [14], the system named is Staphylococcus epidermidis KCTC 1917.

In brackets after ≈: the same amount, converted by molar mass. Where only a bound is given, the exact number is not on record here.

Broadly, the MIC is the lowest concentration found to suppress growth. `CC[C@H](C)[C@H](NC(=O)[C@H](CCCN=C(N)N)NC(=O)[C@@H]1CCCN1C(=O)[C@@H](NC(=O)[C@H](CCCN=C(N)N)NC(=O)[C@@H]1CCCN1C(=O)[C@@H](NC(=O)[C@@H]1CCCN1C(=O)[C@H](Cc1ccccc1)NC(=O)[C@@H]1CCCN1C(=O)[C@@H]1CCCN1C(=O)[C@@H]1CCCN1C(=O)[C@H](Cc1ccccc1)NC(=O)[C@H](CCCN=C(N)N)NC(=O)[C@@H]1CCCN1C(=O)[C@@H](N)CCCN=C(N)N)[C@@H](C)CC)[C@@H](C)CC)C(=O)N1CCC[C@H]1C(=O)O` [RPRFPPPFPIPRIPRIP] registered an MIC against Escherichia coli BW25113 of at least 64 µM.
Same read-out and setting: for `CC[C@H](C)[C@H](NC(=O)[C@@H]1CCCN1C(=O)[C@H](CCCN=C(N)N)NC(=O)[C@H](CCCN=C(N)N)NC(=O)[C@H](CCCN=C(N)N)NC(=O)[C@@H](NC(=O)[C@@H]1CCCN1C(=O)[C@@H]1CCCN1C(=O)[C@H](CCCN=C(N)N)NC(=O)[C@H](Cc1ccccc1)NC(=O)[C@@H](N)CCCN=C(N)N)[C@@H](C)CC)C(=O)N[C@@H](CCCN=C(N)N)C(=O)N1CCC[C@H]1C(=O)N1CCC[C@H]1C(=O)N[C@@H](Cc1ccccc1)C(=O)N[C@@H](Cc1ccc(O)cc1)C(=O)N1CCC[C@H]1C(=O)O` [RFRPPIRRRPIRPPFYP] the value was 8 µM (≈ 17.8 µg/mL).
For the compound `CSCC[C@H](NC(=O)[C@H](Cc1ccccc1)NC(=O)[C@H](CCCCN)NC(=O)CNC(=O)[C@H](C)NC(=O)[C@H](C)NC(=O)[C@H](CCCCN)NC(=O)[C@H](CC(C)C)NC(=O)CNC(=O)[C@H](Cc1ccccc1)NC(=O)[C@H](CCCCN)NC(=O)[C@H](CC(C)C)NC(=O)[C@H](C)NC(=O)[C@H](CCCCN)NC(=O)CNC(=O)[C@H](CC(C)C)NC(=O)[C@H](CC(C)C)NC(=O)[C@H](CO)NC(=O)CNC(=O)[C@H](CC(C)C)NC(=O)CN)C(=O)NCC(=O)NCC(=O)N[C@@H](CCC(=O)O)C(=O)N1CCC[C@H]1C(=O)N[C@@H](CCC(N)=O)C(=O)N[C@@H](CCC(N)=O)C(=O)O` [GLGSLLGKALKFGLKAAGKFMGGEPQQ], the minimal inhibitory concentration (MIC) in assay [1] and in [2] was 25 µM (≈ 67.6 µg/mL) throughout.
Regarding `CC[C@H](C)[C@H](NC(=O)[C@H](CCCCN)NC(=O)[C@H](Cc1c[nH]c2ccccc12)NC(=O)[C@H](CCCCN)NC(=O)[C@@H](N)Cc1ccc(O)cc1)C(=O)N[C@@H](CCCN=C(N)N)C(=O)N[C@@H](Cc1ccccc1)C(=O)N[C@@H](CCCCN)C(=O)N[C@@H](CCCN=C(N)N)C(=O)O` [YKWKIRFKR], the MIC was at least 32.6 µM in assay [3]; 4.1 µM (≈ 5.43 µg/mL) in [2]; 16.3 µM (≈ 21.6 µg/mL) with Candida albicans; 8.2 µM (≈ 10.9 µg/mL) in assay [4]; 4.1 µM (≈ 5.43 µg/mL) in the assay with Escherichia coli UB1005; 1 µM (≈ 1.32 µg/mL) in assay [5]. This compound also gave an MIC in assay [6] of 16.3 µM (≈ 21.6 µg/mL).
Compound `CC[C@H](C)[C@H](NC(=O)[C@@H]1CCCN1C(=O)[C@H](Cc1c[nH]c2ccccc12)NC(=O)[C@H](CCCN=C(N)N)NC(=O)[C@H](Cc1ccccc1)NC(=O)[C@@H](N)CCCN=C(N)N)C(=O)N[C@@H](CCCN=C(N)N)C(=O)N[C@@H](CCCN=C(N)N)C(=O)N[C@@H](CCCN=C(N)N)C(=O)N1CCC[C@H]1C(=O)N[C@H](C(=O)N[C@@H](CCCN=C(N)N)C(=O)N1CCC[C@H]1C(=O)N1CCC[C@H]1C(=O)N[C@@H](Cc1ccccc1)C(=O)N[C@@H](Cc1ccc(O)cc1)C(=O)N[C@@H](Cc1c[nH]c2ccccc12)C(=O)O)[C@@H](C)CC` [RFRWPIRRRPIRPPFYW] showed an MIC against Escherichia coli BW25113 of 4 µM (≈ 9.6 µg/mL).
`CC[C@H](C)[C@H](NC(=O)CN)C(=O)NCC(=O)N[C@@H](CCCCN)C(=O)N[C@@H](Cc1ccccc1)C(=O)N[C@@H](CC(C)C)C(=O)N[C@@H](Cc1cnc[nH]1)C(=O)N[C@@H](CO)C(=O)N[C@@H](C)C(=O)NCC(=O)N[C@@H](CCCCN)C(=O)N[C@@H](Cc1ccccc1)C(=O)NCC(=O)N[C@@H](CCCCN)C(=O)N[C@@H](C)C(=O)N[C@@H](Cc1ccccc1)C(=O)N[C@@H](CC(C)C)C(=O)NCC(=O)N[C@@H](CCC(=O)O)C(=O)N[C@H](C(=O)N[C@@H](CCSC)C(=O)N[C@@H](CCCCN)C(=O)N[C@@H](CO)C(=O)O)C(C)C` [GIGKFLHSAGKFGKAFLGEVMKS]: the minimum inhibitory concentration (MIC) is at least 50 µM in [1], 50 µM (≈ 120 µg/mL) in [7], above 200 µM in assay [2] and at least 100 µM in assay [8].
As to `CC[C@H](C)[C@H](NC(=O)CN)C(=O)N[C@@H](Cc1ccccc1)C(=O)N[C@@H](CO)C(=O)N[C@@H](CC(C)C)C(=O)N[C@H](C(=O)N[C@@H](CCCCN)C(=O)NCC(=O)N[C@@H](C)C(=O)N[C@@H](C)C(=O)N[C@@H](CCC(N)=O)C(=O)N[C@@H](CC(C)C)C(=O)N[C@H](C(=O)NCC(=O)N[C@@H](CCCCN)C(=O)N[C@H](C(=O)N[C@H](C(=O)N[C@@H](C)C(=O)N[C@@H](CCCCN)C(=O)N[C@@H](CCC(=O)O)C(=O)N[C@@H](C)C(=O)NCC(=O)N[C@@H](CCCCN)C(=O)N[C@H](C(=O)NCC(=O)N[C@@H](CC(C)C)C(=O)N[C@@H](CCC(=O)O)C(=O)N[C@@H](CC(C)C)C(=O)N[C@@H](CCSC)C(=O)N[C@@H](C)C(=O)N[C@H]1CSSC[C@@H](C(=O)O)NC(=O)[C@H](CCC(N)=O)NC(=O)[C@H](CCCCN)NC(=O)[C@H]([C@@H](C)O)NC(=O)[C@H](C(C)C)NC(=O)[C@H](CCCCN)NC1=O)[C@@H](C)O)C(C)C)[C@@H](C)O)[C@@H](C)CC)[C@@H](C)CC` [GIFSLIKGAAQLIGKTVAKEAGKTGLELMACKVTKQC], the figures for the MIC in assay [1] and in assay [2] were 16.4 µM (≈ 62.5 µg/mL) and 32.8 µM (≈ 125 µg/mL), respectively.
In the case of `CC[C@H](C)[C@H](NC(=O)[C@H](CCCN=C(N)N)NC(=O)[C@H](CCCN=C(N)N)NC(=O)[C@H](CC(C)C)NC(=O)[C@@H](N)CCCN=C(N)N)C(=O)N[C@H](C(=O)N[C@H](C(=O)N[C@H](C(=O)N[C@@H](CCCN=C(N)N)C(=O)N[C@H](C(=O)N[C@@H](CCCN=C(N)N)C(=O)N[C@@H](CCCN=C(N)N)C(N)=O)C(C)C)[C@@H](C)CC)C(C)C)C(C)C` [RLRRIVVIRVRR], the MIC in [3] was found to be 5.03 µM (≈ 8 µg/mL); in [2], 5.03 µM (≈ 8 µg/mL); in [9], 3.93 µM (≈ 6.25 µg/mL); in assay [10] it was 7.85 µM (≈ 12.5 µg/mL); in assay [11] it was 1.97 µM (≈ 3.13 µg/mL); in the assay on Candida albicans, 19.5 µM (≈ 31 µg/mL). Besides, the MIC in [4] amounted to 5.03 µM (≈ 8 µg/mL); in assay [12], 0.98 µM (≈ 1.56 µg/mL); in the assay on Escherichia coli UB1005 it was 1.26 µM (≈ 2 µg/mL); in assay [5], 1.26 µM (≈ 2 µg/mL); in [13], 3.93 µM (≈ 6.25 µg/mL); in assay [14], 1.97 µM (≈ 3.13 µg/mL). In addition, the MIC in assay [6] stood at 2.51 µM (≈ 4 µg/mL).
For `CSCC[C@H](NC(=O)[C@H](CC(C)C)NC(=O)[C@@H]1CCCN1C(=O)CNC(=O)[C@H](CC(C)C)NC(=O)[C@H](CC(C)C)NC(=O)[C@H](C)NC(=O)CNC(=O)[C@H](CC(C)C)NC(=O)[C@@H](N)Cc1ccccc1)C(=O)N[C@@H](CC(N)=O)C(=O)N[C@@H](CC(C)C)C(=O)N[C@@H](CC(C)C)C(=O)N[C@@H](CCC(N)=O)C(N)=O` [FLGALLGPLMNLLQ], the minimal inhibitory concentration (MIC) is at least 160 µM in assay [1] and above 160 µM in [2].
`CC[C@H](C)[C@H](N)C(=O)N[C@@H](CC(C)C)C(=O)N[C@@H](CCCN=C(N)N)C(=O)N[C@@H](Cc1c[nH]c2ccccc12)C(=O)N[C@@H](CCCCN)C(=O)N[C@@H](Cc1c[nH]c2ccccc12)C(=O)N[C@@H](CCCN=C(N)N)C(=O)N[C@@H](Cc1c[nH]c2ccccc12)C(=O)N[C@@H](Cc1c[nH]c2ccccc12)C(=O)N[C@@H](CCCN=C(N)N)C(=O)N[C@@H](Cc1c[nH]c2ccccc12)C(=O)N[C@@H](CCCN=C(N)N)C(=O)N[C@@H](CCCN=C(N)N)C(=O)O` [ILRWKWRWWRWRR]: the MIC was 5.7 µM (≈ 11.9 µg/mL) in assay [3]; 0.7 µM (≈ 1.46 µg/mL) in assay [2]; 5.7 µM (≈ 11.9 µg/mL) with Candida albicans; 2.9 µM (≈ 6.05 µg/mL) in assay [4]; 1.4 µM (≈ 2.92 µg/mL) in the assay with Escherichia coli UB1005; 0.7 µM (≈ 1.46 µg/mL) in assay [5]. The compound further displayed an MIC in [6] of 2.9 µM (≈ 6.05 µg/mL).

The values are drawn from DBAASP.
